{"source": "patent US9579322B2", "about": "“Methods for treating neurologic disorders” (EIP Pharma, LLC, priority 2014, dated 2017)", "key": {"[1]": {"tested_on": "IL-1β signaling and IL-1β production", "test": "Inhibition of IL-1beta signaling versus IL-1beta production", "type": "cell-based, human", "conditions": "for potency for inhibition of cytokine (IL-1beta) signaling relative to inhibition of cytokine production: signaling versus production"}, "[2]": {"tested_on": "cognitive defects in aged rats", "test": "Morris water maze in aged rats", "type": "in vivo, Fischer rats", "method": "Altogether 60 female aged (20-24 months) and 15 young adult female Fischer Rats (2-3 months) were used for the experiment. Rats were treated with oral gavage twice-a-day until the sampling (23 days) with vehicle or VX-745 0.5, 1.5 or 4.5 mg/kg. Learning and memory deficits were analyzed with Morris water maze (MWM) one week after starting the treatment.\nAll animal experiments were carried out according to the National Institute of Health (NIH) guidelines for the care and use of laboratory animals, and approved by the National Animal Experiment Board, Finland. Altogether 60 female aged (20-24 months) and 15 young (2-3 months) adult female Fischer rats (Charles River, France) were used for the experiment. Animals were housed at a standard temperature (22±1° C.) and in a light-controlled environment (lights on from 7 am to 8 pm) with ad libitum access to food and water. Animals were grouped as follows: • Group 1: 15 Aged Rats treated with Vehicle p.o. BID • Group 2: 15 Aged Rats treated with VX-745 (0.5 mg/kg) p.o. BID • Group 3: 15 Aged Rats treated with VX-745 (1.5 mg/kg) p.o. BID • Group 4: 15 Aged Rats treated with VX-745 (4.5 mg/kg) p.o. BID • Group 5: 15 Young adult control rats treated with Vehicle p.o. BID Drug Delivery and Rat Identification\nThe rats were assigned to the treatment groups equally based on their body weight and visible platform pre-training performance to ensure that both good and poor learners were equally present in all treatment groups. The treatment was given by oral gavage twice-a-day until the sampling. Vehicle was 1% Pluronic F108 and dosing volume was 5 ml/kg. Administration of vehicles and test compounds was done at 7-9 am and 3-5 pm on the pre-testing phase. On the days of behavioral testing, the treatment was given minimum 1 hour prior to first test trial. Test compounds were formulated and stored according to the instructions provided by the sponsor. The rats were marked accordingly with permanent marker to the tail. Records were kept about treatment groups and daily treatment times.\nWater maze task was originally designed by Morris et al. (J Neurosci Methods. 1984; 11: 194 47-60). Testing was performed in a large dark-colored tank (200 cm in diameter) filled with clear water at a temperature of 25.0±1.0° C. A submerged platform (square platform: 10×10 cm; 1.5 cm below water surface) was placed in the middle of the of the NW quadrant. The starting locations, which were labeled N, NE, E, SE, S, SW, W, NW, were located arbitrarily on the pool rim. The rats were lowered into the pool with their nose pointing toward the wall at one of the starting points. The release point adjacent to platform location (NW) was not used.\nBefore the compound treatment was started, the visible platform pre-training was performed to determine whether any non-cognitive performance impairments (e.g. visual impairments and/or swimming difficulties) were present, which might affect performance on the place or probe trials. After the visible platform pre-training was completed, the data was analyzed and the rats were assigned to the different treatment groups based on their pre-training performance. This procedure was performed to ensure that each treatment group consisted equally both good and poor performers in the cued version of the water maze task.\nAcquisition training—weeks 1 (days 8-11) & 2 (days 15-18): After completion of cued trials, acquisition (place) trials were executed to determine the rat's ability to learn the spatial relationship between distant cues and the submerged escape platform which remained in the same location for all place trials. The starting points were randomized (NW is not used). The rats received four trials (15 min apart, 60 s maximum for each trial) each day for 4 days/week. Latency and path length (distance) were evaluated.\nProbe trial (day 19): A single probe trial was conducted 24 hours after the last place trial to evaluate memory retention. […]"}, "PSD95": {"tested_on": "PSD95", "test": "PSD95 ELISA of cortex and hippocampus extracts", "type": "in vivo, Fischer rats", "method": "(§1) The primary objective of this study was to investigate whether pre-treatment with compound VX-745 alleviates cognitive defects in aged rats. Plasma concentration of VX-745 was determined with LC-MS/MS at the end of the study from samples collected 1 hour post dosing. In addition, protein levels of PSD95 in ventral cortex and hippocampus, and levels of IL-1β in the hippocampus were analyzed by specific ELISA assays to evaluate the potential anti-inflammatory effects of VX-745 in the brain\n(§2) One hour after the last vehicle or VX-745 morning dosing, the animals (10 per dosing group) were deeply anesthetized with pentobarbital and blood samples were collected by cardiac puncture. 500 μl of blood was collected into EDTA microtubes, centrifuged, and plasma collected. The brains were perfused with heparinized saline, and the brains were collected. Right hemisphere was post-fixed by immersion in 4% PFA in 0.1 M PB for 24 h. After a brief wash with phosphate buffer, the hemisphere was cryoprotected in 30% sucrose in PB for 2-3 days, after which it was frozen on liquid nitrogen and stored at −80° C. for optional future immunohistochemical analysis. […]\n(§3) Cortex and hippocampal soluble extracts were analyzed for PSD95 content using an ELISA kit (Cusabio Biotech Ltd., #CSB-EL006938RA, Lot 031154387), while the levels of Il-1β were analyzed only from hippocampus (R&D Systems, #RLB00, Lot 308544)."}, "IL-1β": {"tested_on": "IL-1β", "test": "IL-1β ELISA of hippocampus extracts", "type": "in vivo, Fischer rats", "method": "as §1, §2, §3"}, "[3]": {"tested_on": "cytokine (IL-1β or TNFα) production in whole blood", "conditions": "inhibition of cytokine production (anti-inflammatory activity); cited from earlier work"}, "paw swelling": {"tested_on": "paw swelling", "conditions": "10 mg/kg, reference compound in arthritis model; cited from earlier work"}, "knee degeneration": {"tested_on": "knee degeneration", "conditions": "rats, 50 mg/kg, compared to control animals; cited from earlier work"}, "[4]": {"tested_on": "rheumatoid arthritis (RA)", "conditions": "cited from earlier work"}, "[5]": {"conditions": "cited from earlier work"}, "[6]": {"conditions": "animals; cited from earlier work"}, "[7]": {"conditions": "250 mg b.i.d, phase 2 clinical, RA patients"}}}
{"substance": "VX-745", "values": [{"measurement": "IC50 for inhibition of IL-1β signaling relative to IC50 for inhibition of IL-1β production", "setting": "[1]; human systems, prior, previously undisclosed studies", "value": "approximately half"}, {"measurement": "potency for inhibition of cytokine (IL-1beta) signaling relative to inhibition of cytokine production", "setting": "[1]", "value": "approximately twice"}, {"measurement": "potency for inhibition of cytokine (IL-1beta) signaling relative to inhibition of cytokine production", "setting": "[1]; listed as VX745", "value": "two-fold higher"}, {"measurement": "MWM distance at day 17", "setting": "[2]; 1.5 mg/kg p.o. BID versus vehicle-treated aged rats, p=0.0.019", "value": "statistically significant better performance"}, {"measurement": "MWM change in latency from first test day to last test day", "setting": "[2]; 1.5 mg/kg p.o. BID versus vehicle-treated aged rats, p=0.007", "value": "performed significantly better"}, {"measurement": "MWM change in distance from first test day to last test day", "setting": "[2]; 1.5 mg/kg p.o. BID versus vehicle-treated aged rats, p=0.012", "value": "performed significantly better"}, {"measurement": "MWM latency at day 17", "setting": "[2]; 1.5 mg/kg p.o. BID versus vehicle-treated aged rats, p=0.013", "value": "statistically significant better performance"}, {"measurement": "MWM latency and distance, comparison of dose groups", "setting": "[2]; 1.5 mg/kg p.o. BID, about equal to young vehicle-treated rats on Day 17", "value": "greatest effect"}, {"measurement": "MWM swim time and distance over sequential testing", "setting": "[2]; VX-745-treated aged rats, p.o. BID", "value": "greater progressive shortening of swim time and distance"}, {"measurement": "MWM probe trial parameters (day 19)", "setting": "[2]; time in target quadrant and annulus, platform crosses", "value": "no positive or negative effects"}, {"measurement": "PSD95 protein levels", "setting": "PSD95; 1.5 mg/kg", "value": "no evident effects"}, {"measurement": "PSD95 protein levels", "setting": "PSD95; 4.5 mg/kg versus aged vehicle-treated group, p=0.063 Mann-Whitney", "value": "statistical trend towards higher levels of PSD95"}, {"measurement": "IL-1β levels in the hippocampus", "setting": "IL-1β; 1.5 mg/kg", "value": "no evident effects"}, {"measurement": "IL-1β levels in the hippocampus", "setting": "IL-1β; 4.5 mg/kg, p=0.038 Mann-Whitney, similar to young rats", "value": "lower relative to the aged vehicle-treated group"}, {"measurement": "whole blood IC50", "setting": "[3]", "value": "0.065 to 0.08", "unit": "µg/mL"}, {"measurement": "inhibition of paw swelling", "setting": "paw swelling", "value": "not as effective at inhibiting paw swelling as other compounds assayed"}, {"measurement": "inhibition of knee degeneration", "setting": "knee degeneration", "value": "statistically significant inhibition of knee degeneration"}, {"measurement": "adverse events in patients", "setting": "[4]; [7]", "value": "adverse events, including gastrointestinal effects such as diarrhea and abdominal pain, and elevations in liver transaminases"}, {"measurement": "inflammatory markers and clinical improvement", "setting": "[4]; [7]", "value": "significant reduction in inflammatory markers and clinical improvement"}, {"measurement": "mean plasma drug concentrations", "setting": "[4]; 250 mg b.i.d, phase 2 clinical", "value": "approximately 75 ng/m"}, {"measurement": "adverse neurological effects in humans", "setting": "[4]; humans", "value": "not observed"}, {"measurement": "mean blood concentration in the treatment of rheumatoid arthritis", "setting": "[4]; treatment of rheumatoid arthritis", "value": "approximately 75 ng/mL"}, {"measurement": "blood brain barrier penetration", "setting": "[5]; animals", "value": "known to penetrate the blood brain barrier (BBB)"}, {"measurement": "brain concentrations relative to plasma", "setting": "[5]; brain versus plasma", "value": 1.7, "unit": "times"}, {"measurement": "neurological effects at very high doses", "setting": "[6]", "value": "adverse neurological effects"}]}
